According to patent US11717476B2, “Moringa peregrina seed extract rich in 2,5-diformylfuran, process for obtaining same and use thereof in cosmetic compositions” (priority 2020, dated 2023):

Assays:
telomerase = assay: Telomerase activity in adult keratinocytes in monolayer culture (PCR-ELISA kit); type: cell-based, human; details: 100 ng/ml; 24 hours
Description: Protocol: Human keratinocytes were obtained from a donor. To perform the experiments, the keratinocytes were used at a low passage level (i.e., cell isolation passage number 2). The cells were grown as a monolayer until they reached about 75% of confluence before being used in the experiment. Reference product: FK228 at 100 ng/ml was used as a reference inducer of telomerase 1 activity. Incubation protocol: […] At the end of the incubation period, the telomerase was extracted from the cells and its activity was determined by means of a specific, sensitive kit. The principle of the telomerase kit is to measure the telomerase activity by coupling a PCR step (in which telomerase functions as regards its elongation activity) with an ELISA step for semi-quantitative determination of amounts of telomerase elongation product. The results are expressed in arbitrary units for the telomerase activity level (mean±S.D). The significance level between the “vehicle” and the “reference product” was evaluated by means of a Student's t test (*: p<0.05). The significance level between “control” and “test compound” was evaluated independently for each product by a one-way analysis of variance (one-way ANOVA) followed by a Holm-Sidak test (*: p<0.05).

phospholipase A2 = target: T1, phospholipase A2 (Homo sapiens, UniProt P39877); assay: sPLA2 (type V) Inhibitor Screening Assay Kit; type: biochemical; details: 1 mg in 100 μl
T1 construct: purchased
T1 sequence (P39877 21-138): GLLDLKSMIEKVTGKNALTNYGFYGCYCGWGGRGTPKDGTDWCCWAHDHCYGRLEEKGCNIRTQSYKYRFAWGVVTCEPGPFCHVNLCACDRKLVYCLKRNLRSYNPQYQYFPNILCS
Excerpt: The object of this study is to evaluate the modulation of the […] activity of the enzyme phospholipase A2 by one or more samples in an in vitro acellular model by means of the “SPLA2 (type V) Inhibitor Screening Assay Kit”. Phospholipase A2 is a key enzyme upstream of the inflammatory process which is triggered by the arachidonic cascade. A buffered solution of phospholipase A2 reacts with a specific substrate, diheptanoyl thio-PC, and transforms it into a compound which binds to a chromogen, DTNB, with agitation at room temperature. The phospholipase A2 activity may thus be evaluated by measuring the absorbance at 413 nm. […] The substrate transformed by the enzyme is stained by means of the chromogen DTNB by agitation at room temperature. […] The modulation of this activity is expressed as a percentage of inhibition or of activation of the phospholipase A2 activity in the absence of the active agent, i.e. only in the presence of the enzyme substrate (diheptanoyl thio-PC).
At the end of the incubation period, the activity of the enzyme phospholipase A2 with and without the test product or the reference product is evaluated by measuring the absorbance of the reaction media at 413 nm. For each concentration tested, the modulation of the phospholipase A2 enzymatic activity with the test product is calculated according to the following formula. […]

C/C=C1\NC(=O)[C@H]2CSSCC/C=C/[C@H](CC(=O)N[C@H](C(C)C)C(=O)N2)OC(=O)[C@H](C(C)C)NC1=O [FK228]
increase of telomerase activity (telomerase): 28.0%

CCCCCCCCCCCCCCCCSC[C@H](COP(=O)(O)OCC[N+](C)(C)C)NC(=O)CCCCCCCCCCCCCCC [thioetheramide-PC]
inhibition of PLA2 activity (phospholipase A2): 93%
